Source: patent publication EP0244595A2, “Dihydropyridine derivatives, process for their preparation and their use as pharmaceutical compounds” (Byk Gulden Lomberg Chemische Fabrik GmbH, priority 1986, dated 1987)
Structures can show the parent of a compound that is named as a salt. Where two headings read alike, the source gives them in different places.

Test system: genetisch hypertonen Ratten
Test: Antihypertensive effect (systolic blood pressure, tail cuff) in spontaneously hypertensive rats after oral dosing
Format: in vivo, Ratte
Conditions: Rattus norvegicus; for change in vivo at 10 µmol/kg: 10 µmol/kg p.o. once daily on four consecutive days; for change in vivo at 25 µmol/kg: 25 µmol/kg p.o. once daily on four consecutive days; for change in vivo at 5 µmol/kg: 5 µmol/kg p.o. once daily on four consecutive days
Description: Die antihypertensive Wirksamkeit der erfindungsgemäßen Verbindungen kann am Modell der spontan hypertonen Ratte nachgewiesen werden.
Zur Bestimmung der antihypertensiven Wirkung werden die unten aufgeführten Verbindungen in den angegebenen Dosen an vier aufeinander folgenden Tagen an je 6 männlichen Ratten (Stamm SHR/N/Ibm/Bm, 250-350 g) mit genetisch bedingtem Hochdruck (systolischer Blutdruck > 180 mmHg) täglich einmal mittels Schlundsonde verabfolgt. Die Messung des Blutdrucks erfolgt jeweils 6 und gegebenenfalls 2 oder 24 Studnen nach Substanzgabe.
Die Blutdruckmessung wird in einer Wärmekammer bei 36°C vorgenommen, um eine bessere Durchblutung der Schwanzarterie zu erreichen. Hierzu werden die Tiere in perforierte Lochblechkäfige verbracht und 20 - 40 Min. nach Beginn der Aufwärmung gemessen. Zur Messung des systolischen arteriellen Drucks wird eine ringförmige Manschette mit aufblasbarer Gummimembran zur Unterbindung der Durchblutung und ein ringförmiger Piezokristallaufnehmer zur Erfassung der Pulswellen auf den Schwanz aufgeschoben. Nach erfolgter Unterbindung des Blutstroms in der Schwanzarterie wird der Manschettendruck kontinuierlich reduziert. Die Wiederkehr der Pulswellen bei Druckablassen wird automatisch als systolischer Blutdruck erkannt und ausgedruckt (Bühler, R. er al." Microprocessor-based automation of blood pressure measurement in the conscious rat. Proceedings of the 4th international symposium on rats with spontaneous hypertension and related studies, Rascher, R. et al. (Eds.), Schattauer Verlag, Stuttgart, New York, 1982, S. 410-413). Pulssignale und Druckverlauf werden zur Auswertung graphisch aufgezeichnet.
Zur Gewöhnung an den Meßvorgang werden die Tiere vor Substanzprüfung 14 Tage trainiert. In der zweiten Trainingswoche werden Blutdruck-Vorwerte erhoben. Tiergruppen, die Substanz erhalten, werden gegen eine Kontrollgruppe geprüft.
In der anschließenden Tabelle werden die untersuchten Verbindungen durch laufende Nummern gekennzeichnet, die mit den jewiligen Beispielnummern übereinstimmen.
Tabelle I gibt für die Vertreter der erfindungsgemäßen Verbindungen die prozentuale Senkung des Blutdrucks (BP) nach oraler Verabreichung bei der Ratte wieder.

[1] = 2h after dosing, mean of days 1+4, male SHR/N/Ibm/Bm rats, N=6, read-out: BP (% Änderung vs. Kontrolle), Mittelwert für Meßzeitpunkte: Stunden nach Gabe (Tage) 2h (1.+4.Tag)
[2] = 6h after dosing, mean of days 1-4, male SHR/N/Ibm/Bm rats, N=6, read-out: BP (% Änderung vs. Kontrolle), Mittelwert für Meßzeitpunkte: Stunden nach Gabe (Tage) 6h (1.-4.Tag)
[3] = 24h after dosing, mean of days 1+3, male SHR/N/Ibm/Bm rats, N=6, read-out: BP (% Änderung vs. Kontrolle), Mittelwert für Meßzeitpunkte: Stunden nach Gabe (Tage) 24h (1.+3.Tag)

SMILES | change in vivo at 10 µmol/kg [1] [%] | change in vivo at 10 µmol/kg [2] [%] | change in vivo at 10 µmol/kg [3] [%] | change in vivo at 25 µmol/kg [1] [%] | change in vivo at 25 µmol/kg [2] [%] | change in vivo at 25 µmol/kg [3] [%] | also measured
CC1=C(C(=O)OCCCN2CCN(c3ccc4c(c3)OCO4)CC2)C(c2cccc([N+](=O)[O-])c2)C(C(=O)O[C@@H]2C[C@H](C)CC[C@H]2C(C)C)=C(C)N1 (single isomer, unassigned) [Beispiel 16, 1,4-Dihydro-2,6-dimethyl-4-(3-nitrophenyl)-pyridin-3,5-dicarbonsäure-3-(-)-menthyl-5-{3-[4-(3,4-methylendioxyphenyl)-1-piperazinyt]-propyl}ester-fumarat] | -21 | -21 | -7 | – | – | – | –
CC1=C(C(=O)OCCCN2CCN(c3ccccc3C)CC2)C(c2cccc([N+](=O)[O-])c2)C(C(=O)O[C@@H]2C[C@H](C)CC[C@H]2C(C)C)=C(C)N1 (single isomer, unassigned) [Beispiel 17, 1,4-Dihydro-2,6-dimethyl-4-(3-nitrophenyl)-pyridin-3,5-dicarbonsäure-3-(-)-menthyl-5-{3-[4-(2-tolyl)-1-piperazinyl]-propyl}-ester-fumarat] | -17 | -14 | -3 | – | – | – | –
CC1=C(C(=O)OCCCN2CCN(c3ccc(C)cc3C)CC2)C(c2cccc([N+](=O)[O-])c2)C(C(=O)O[C@@H]2C[C@H](C)CC[C@H]2C(C)C)=C(C)N1 (single isomer, unassigned) [Beispiel 18, 1,4-Dihydro-2,6-dimethyl-4-(3-nitrophenyl)-pyridin-3,5-dicarbonsäure-3-(-)-menthyl-5-{3-[4-(2,4-dimethylphenyl)-1-piperazinyl]-propyl}-ester-fumarat] | -15 | -18 | -3 | – | – | – | –
COc1ccccc1N1CCN(CCCOC(=O)C2=C(C)NC(C)=C(C(=O)O[C@@H]3C[C@H](C)CC[C@H]3C(C)C)C2c2cccc(Cl)c2Cl)CC1 (single isomer, unassigned) [Beispiel 21, 4-(2,3-Dichlorphenyl)-1,4-dihydro-2,6-dimethyl-pyridin-3,5-dicarbonsäure-3-(-)-menthyl-5-{3-[4-(2-methoxyphenyl)-1-piperazinyl]-propyl}ester-fumarat] | – | – | – | -50 | -51 | -46 | –
CCOc1ccccc1N1CCN(CCCOC(=O)C2=C(C)NC(C)=C(C(=O)O[C@@H]3C[C@H](C)CC[C@H]3C(C)C)C2c2cccc(Cl)c2Cl)CC1 (single isomer, unassigned) [Beispiel 22, 4-(2,3-Dichlorphenyl)-1,4-dihydro-2,6-dimethyl-pyridin-3,5-dicarbonsäure-3-(-)-menthyl-5-{3-[4-(2-ethoxyphenyl)-1-piperazinyl]-propyl}ester-fumarat] | – | – | – | -46 | -55 | -43 | –
CC1=C(C(=O)OCCN2CCCCC2)C(c2cccc([N+](=O)[O-])c2)C(C(=O)O[C@@H]2C[C@H](C)CC[C@H]2C(C)C)=C(C)N1 (single isomer, unassigned) [Beispiel 23, 1,4-Dihydro-2,6-dimethyl-4-(3-nitrophenyl)-pyridin-3,5-dicarbonsäure-3-(-)-menthyl-5-[2-(1-piperidinyl)-ethyl]-ester-fumarat] | – | – | – | -17 | -26 | 4 | –
CC1=C(C(=O)OCCCN2CCC(c3ccccc3)(c3ccccc3)CC2)C(c2cccc([N+](=O)[O-])c2)C(C(=O)O[C@@H]2C[C@H](C)CC[C@H]2C(C)C)=C(C)N1 (stereo partly drawn) [Beispiel 1a, 1,4-Dihydro-2,6-dimethyl-4-(3-nitrophenyl)-pyridin-3,5-dicarbonsäure-3-(-)-menthyl-5-[3-(4,4-diphenylpiperidyl-1)-propyl]-ester-hydrochlorid] | – | – | – | -24 | -20 | -15 | –
CC1=C(C(=O)OCCCN2CCC(c3ccccc3)CC2)C(c2cccc([N+](=O)[O-])c2)C(C(=O)O[C@@H]2C[C@H](C)CC[C@H]2C(C)C)=C(C)N1 (stereo partly drawn) [Beispiel 2a, 1,4-Dihydro-2,6-dimethyl-4-(3-nitrophenyl)-pyridin-3,5-dicarbonsäure-3-(-)-menthyl-5-[3-(4-phenylpiperidyl-1)-propyl]-ester-hydrochlorid] | – | – | – | -25 | -24 | -16 | –
COc1ccccc1N1CCN(CCCOC(=O)C2=C(C)NC(C)=C(C(=O)O[C@@H]3C[C@H](C)CC[C@H]3C(C)C)C2c2cccc([N+](=O)[O-])c2)CC1 (stereo partly drawn) [Beispiel 3a, 1,4-Dihydro-2,6-dimethyl-4-(3-nitrophenyl)-pyridin-3,5-dicarbonsäure-3-(-)-menthyl-5-{3-[4-(2-methoxyphenyl)-1-piperazinyl]-propyl}-ester-fumarat] | – | – | – | -46 | -42 | -15 | –
CC1=C(C(=O)OCCN2CCN(c3ccccc3)CC2)C(c2cccc([N+](=O)[O-])c2)C(C(=O)O[C@@H]2C[C@H](C)CC[C@H]2C(C)C)=C(C)N1 (stereo partly drawn) [Beispiel 4a, 1,4-Dihydro-2,6-dimethyl-4-(3-nitrophenyl)-pyridin-3,5-dicarbonsäure-3-(-)-menthyl-5-[2-(4-phenyl-1-piperazinyl)-ethyl]ester-fumarat] | – | – | – | – | – | – | change in vivo at 5 µmol/kg [1]: -34%; change in vivo at 5 µmol/kg [2]: -23%; change in vivo at 5 µmol/kg [3]: -14%
CC1=C(C(=O)OCCN2CCN(c3ccccn3)CC2)C(c2cccc([N+](=O)[O-])c2)C(C(=O)O[C@@H]2C[C@H](C)CC[C@H]2C(C)C)=C(C)N1 (stereo partly drawn) [Beispiel 5a, 1,4-Dihydro-2,6-dimethyl-4-(3-nitropheny)-pyridin-3,5-dicarbonsäure-3-(-)-menthyl-5-{2-[4-(2-pyridyl)-1-piperazinyl]-ethyl}-ester-fumarat] | -29 | -11 | -3 | – | – | – | –
